Experimental data as given in patent US4782176A, “Phenoxycarboxylic acids” (Hoffmann-La Roche Inc., priority 1983, dated 1988).
Read-outs that look alike come from different tables or passages of the source.

Columns and labels:
[1] = test system: SRS-A-induced constriction of the guinea pig ileum; test: Guinea Pig Ileum, In Vitro (inhibition of SRS-A-induced constriction); settings: Cavia porcellus; SRS-A (EC50 dose) challenge, 37° C., atropine and pyrilamine present
Procedure: (a) Guinea Pig Ileum, In Vitro:
The guinea pig ileum bioassay system has been described by Orange and Austen, Adv. Immunol. […] A 1.5 cm segment is removed from animals weighing 300-400 g and suspended in an organ bath containing 10 ml of Tyrodes solution with 10^-6 M atropine sulfate and 10^-6 M pyrilamine maleate. […] The SRS-A utilized in this screen is obtained by challenging chopped lung fragments from actively sensitized guinea pigs with egg albumin, in vitro. A dose-response curve to SRS-A challenge is established for the ileum. […] The drug concentration which inhibits, by 50%, the SRS-A-induced constriction of the guinea pig ileum is determined.

[2] = test system: leukotriene E4-induced bronchoconstriction; test: Guinea Pig Bronchoconstriction, In Vivo (leukotriene E4 challenge; drug i.v. or oral); settings: for Guinea Pig Bronchoconstriction, In Vivo % I, 10 mg/kg I.V.: leukotriene E4 challenge; for inhibition in vivo at 100 mg/kg: Cavia porcellus, po, 100 mg/kg p.o.
Procedure: (b) Guinea Pig Bronchoconstriction, In Vivo:
Male guinea pigs (Hostley strain) weighing 300 to 450 grams are anesthetized with urethane (2 g/kg) intraperitoneally and a polyethylene cannula is inserted into the jugular vein for intravenous drug administration. Tracheal pressure is recorded from a cannula inserted in the trachea and connected to a Statham pressure transducer. Respiration is paralyzed with succinyl choline (1.2 mg/kg, i.v.) and the animals are mechanically respirated (Howard rodent respirator) at 40 breaths/minute and 2.5 cc tidal volume. Two minutes thereafter, propanolol (0.1 mg/kg, i.v.) is administered. Five minutes later, the animals are pretreated intravenously for 30 seconds (at 10 mg/kg) with test drug or control vehicle. The animals are subsequently challenged with a maximally constrictory dose of leukotriene E4 also administered intravenously. The change (cm H2 O) between pre and peak ventilatory pressure readings is averaged for three control animals and five drug treated animals. The percent inhibition is calculated from the following formula: (Control-Drug Treated/Control)×100. For determination of oral activity, spontaneously breathing animals are pretreated orally for 2 hours (at 100 mg/kg) prior to challange with leukitriene E4.

[3] = test system: leukotriene E4-induced bronchoconstriction; test: Guinea Pig Bronchoconstriction, In Vivo (Aerosol)
Procedure: (c) Guinea Pig Bronchoconstriction, In Vivo (Aerosol):
(§1) Male guinea pigs (Hartley strain) weighing 300 to 500 g are anesthetized with urethane (2 g/kg) intraperitoneally and a polyethylene cannula is inserted into the jugular vein for drug administration. Tracheal pressure is recorded from a cannula inserted in the trachea and connected to a Statham pressure transducer. After surgical preparation of the animals, a period of time is allowed for pulmonary functions to stabilize. The test compound is administered according to the following protocol. Propanolol (0.1 mg/kg) is administered intravenously while the animals breathed spontaneously. Five minutes thereafter, the animals are exposed for a five minute period to a 1% (w/v) aerosol solution of test compound (adjusted to an alkaline pH where necessary for drug solubilization) or to distilled water of the appropriate pH (for control purposes). A Monaghan (Model 750) ultrasonic nebulizer is used to administer all test compounds by inhalation. The nebulizer ultrasonic frequency is adjusted to produce particles in the 1-8μ diameter range (average 3μ). Aqueous solutions are prepared fresh and introduced into the chamber of the nebulizer. The output of the nebulizer is made available to the animal by directing a bias flow of aerosol through a y tube connected to the tracheal cannula. At the end of the exposure period, the animals are paralyzed with succinylcholine (1.2 mg/kg, i.v.) and mechanically respirated (Harvard rodent respirator) at 40 breaths/minute and 2.5 cc tidal volume. Animals are then challenged with a maximum constrictory dose of leukotriene E4 delivered intravenously 30 seconds after administration of the succinylcholine.
(§2) The change (cm H2 O) between pre and peak ventilatory pressure readings is averaged for the three control animals and five drug treated animals. The percent inhibition is calculated from the following formula: [formula] When various drug concentrations are tested, the percent inhibition at each concentration is plotted as log concentration (abscissa) versus percent inhibition (ordinate) and the IC50 is determined from linear regression analysis.

[4] = test system: leukotriene E4-induced bronchoconstriction; test: Guinea Pig Bronchoconstriction, In Vivo (Aerosol), duration of action; settings: 1% aerosol; time for % inhibition to fall below 40%
Procedure: as §1, §2
In order to determine the duration of action (doa), the animals are prepared as described above, except that the time between aerosol exposure and challenge with LTE4 is varied. All compounds are administered at a concentration of 1%. Duration of action is calculated from plots of time (abscissa) versus % inhibition (ordinate). The duration of action is defined as the time for the % inhibition to fall below 40%.

LD50 = settings: in vivo, species not given
[5] = 2 hours prior to leukotriene E4 challenge
[6] = time after exposure not given, leukotriene E4 challenge
[7] = determined 30 seconds after exposure to test drug (footnote a)

Structure (SMILES)	IC50 [1]	Guinea Pig Bronchoconstriction, In Vivo % I, 10 mg/kg I.V. [2]	inhibition in vivo at 100 mg/kg [2, 5]	Guinea Pig Bronchoconstriction, In Vivo Aerosol IC50 (%) [3, 6]	Aerosol Duration of Action [4]	LD50 (LD50; ip, read-out: LD50 i.p.)	LD50 (LD50; po, read-out: LD50 p.o.)	oral activity in guinea pig bronchoconstriction (in words) ([2]; oral, 100 mg/kg, 2 hours prior to leukotriene E4 challenge)	Guinea Pig Bronchoconstriction, In Vivo Aerosol IC50 (%) [3, 7]	Guinea Pig Bronchoconstriction, In Vivo Aerosol IC50 (%) ([3]; determined 15 minutes after exposure to test drug (footnote b))
CCCc1c(OCCOCCOCCOc2c(C(C)=O)ccc(OCC(=O)O)c2CCC)ccc(C(C)=O)c1O [[4-acetyl-3-[2-[2-[2-(4-acetyl-3-hydroxy-2-propylphenoxy)ethoxy]ethoxy]ethoxy]-2-propylphenoxy]acetic acid]	1000 nM	85%	4%	0.04%	42 min	120 mg/kg	650 mg/kg			
CCCc1c(OCCOCCOCCOCCOc2c(C(C)=O)ccc(OCC(=O)O)c2CCC)ccc(C(C)=O)c1O [[4-acetyl-3-[2-[2-[2-[2-(4-acetyl-3-hydroxy-2-propylphenoxy)ethoxy]ethoxy]ethoxy]ethoxy]-2-propylphenoxy]acetic acid]	300 nM	90%		0.04%	73 min					
CCCc1c(OCC(O)COc2ccc3c(=O)cc(C(=O)O)oc3c2CCC)ccc(C(C)=O)c1O (stereo not shown) [7-[3-(4-Acetyl-3-hydroxy-2-propylphenoxy)-2-hydroxypropoxy]-4-oxo-8-propyl-4H-1-benzopyran-2-carboxylic acid, reference compound]		98%						orally inactive		
CCCc1c(OCCCOc2c(C(C)=O)ccc(OCC(=O)O)c2CCC)ccc(C(C)=O)c1O [[4-acetyl-3-[3-(4-acetyl-3-hydroxy-2-propylphenoxy)propoxy]-2-propylphenoxy]acetic acid]	2000 nM	95%	52%		90 min	90 mg/kg	500 mg/kg		0.07%	
CCCc1c(OCCOCCOc2c(C(C)=O)ccc(OCC(=O)O)c2CCC)ccc(C(C)=O)c1O [[4-acetyl-3-[2-[2-(4-acetyl-3-hydroxy-2-propylphenoxy)ethoxy]ethoxy]-2-propylphenoxy]acetic acid]	200 nM	86%	26%	0.02%	14 min	170 mg/kg	800 mg/kg			
CCCc1c(OCCCOc2c(C(C)=O)ccc(OCCCC(=O)O)c2CCC)ccc(C(C)=O)c1O [4-[4-acetyl-3-[3-(4-acetyl-3-hydroxy-2-propylphenoxy)propoxy]-2-propylphenoxy]butanoic acid]	200 nM	97%	81%			650 mg/kg	770 mg/kg		0.44%	
CCCc1c(OCCCOCCCOc2c(C(C)=O)ccc(OCCCC(=O)O)c2CCC)ccc(C(C)=O)c1O [4-[4-Acetyl-3-[3-[3-(4-acetyl-3-hydroxy-2-propylphenoxy)propoxy]propoxy]-2-propylphenoxy]butanoic acid]	200 nM	93%	56%	0.008%	37 min					
CCCc1c(OCCCCCOc2c(C(C)=O)ccc(OCCCC(=O)O)c2CCC)ccc(C(C)=O)c1O [4-[4-acetyl-3-[[5-(4-acetyl-3-hydroxy-2-propylphenoxy)pentyl]oxy]-2-propylphenoxy]butanoic acid]	1000 nM	92%	84%	0.01%	46 min					
CCCc1c(OCCCCCOc2c(C(C)=O)ccc(OCC(=O)O)c2CCC)ccc(C(C)=O)c1O [[4-acetyl-3-[5-(4-acetyl-3-hydroxy-2-propylphenoxy)pentyloxy]-2-propylphenoxy]acetic acid]	100 nM	91%	51%	0.02%	55 min	140 mg/kg	900 mg/kg			
CCCc1c(OCC(O)COc2c(C(C)=O)ccc(OCC(=O)O)c2CCC)ccc(C(C)=O)c1O (racemic) [racemic [4-acetyl-3-[3-(4-acetyl-3-hydroxy-2-propylphenoxy)-2-hydroxypropoxy]-2-propylphenoxy]acetic acid]	1000 nM	89%	29%		72 min					0.1%
